Measurements published in patent US6887890B2, “Compounds exhibiting thrombopoietin-like activities” (Chugai Seiyaku Kabushiki Kaisha, priority 2000, dated 2005).

System: Mpl-expressing Ba/F3 cell line (human mpl gene)
Experiment: Measurement of thrombopoietin (TPO) activity: viable cell count of Mpl-expressing Ba/F3 cell line (Cell Count Reagent SF, absorbance 450 nm)
Assay type: cell-based
Conditions: for Concentration: concentration corresponding to the maximum TPO activity value; for TPO activity: maximum TPO activity value, ODt/ODs×100 relative to maximum reaction of human TPO, Mpl-expressing Ba/F3 cells cultured at 37° C. for one day, at the concentration given
Description: The TPO activities of the compounds of the invention obtained in the aforementioned examples were measured by the procedure described below, for evaluation of their thrombopoietic effects.
Establishment of Mpl-expressing Ba/F3 Cell Line
The human mpl gene was cloned from cDNAs of the human erythroleukemia cell line HEL by PCR, and was incorporated into pCOS1 to construct an expression vector. The expression vector was transfected into Ba/F3 cells by electroporation method, and an Mpl-expressing Ba/F3 clone was established.
Measurement of Thrombopoietin (TPO) Activity
The cytokine-eliminated Mpl-expressing Ba/F3 line was plated in a 96-well plate at 25,000 cells/well. DMSO solutions containing the compounds obtained in each of the examples were then prepared to different specified concentration ranges, and each solution was added to the Mpl-expressing Ba/F3 cell line (final DMSO concentration: ≦0.1%), and the cell were cultured at 37° C. for one day. Human TPO (by R&D Systems or Genzyme) was used as a positive control.
Each of the cultured Mpl-expressing Ba/F3 cell lines was subjected to absorbance measurement at a wavelength of 450 nm (reference wavelength: 620 nm), corresponding to the viable cell count, using Cell Count Reagent SF (by Nacalai Tesque Inc.). The TPO activity of each compound for the Mpl-expressing Ba/F3 cell line was determined based on the following formula. TPO activity (%)=ODt/ODs×100
ODs: Absorbance at maximum reaction of human TPO (wavelength: 450-620 nm).
ODt: Absorbance of test solution (wavelength: 450-620 nm).
Tables 1 and 2 show the maximum TPO activity values and the corresponding concentrations of each compound, as obtained by the test described above.

Row | Structure (SMILES) | Concentration [µM] | TPO activity [%]
1 | Cc1cccc2c(CC(=O)N[C@H](CCCCN)C(=O)Nc3ccc(C(c4ccc(NC(=O)[C@@H](CCCCN)NC(=O)Cc5c[nH]c6c(C)cccc56)cc4)c4ccc(NC(=O)[C@@H](CCCCN)NC(=O)Cc5c[nH]c6c(C)cccc56)cc4)cc3)c[nH]c12.Cl [Example 155, tris[4-[N-α-[2-(7-methyl-1H-indol-3-yl)acetyl]-D-lysyl]aminophenyl]methane hydrochloride] | 25 | 44.3
2 | COc1ccc2[nH]c(C)c(CC(=O)N[C@@H](CCCCN(C)C)C(=O)Nc3ccc(C(c4ccc(NC(=O)[C@H](CCCCN(C)C)NC(=O)Cc5c(C)[nH]c6ccc(OC)cc56)cc4)c4ccc(NC(=O)[C@H](CCCCN(C)C)NC(=O)Cc5c(C)[nH]c6ccc(OC)cc56)cc4)cc3)c2c1 [Example 31] | 25 | 96.4
3 | COc1ccc2c(CC(=O)N[C@H](CCCCN)C(=O)Nc3ccc(C(c4ccc(NC(=O)[C@@H](CCCCN)NC(=O)Cc5c(C)[nH]c6cc(OC)ccc56)cc4)c4ccc(NC(=O)[C@@H](CCCCN)NC(=O)Cc5c(C)[nH]c6cc(OC)ccc56)cc4)cc3)c(C)[nH]c2c1.Cl [Example 146, tris[4-[N-α-[2-(6-methoxy-2-methyl-1H-indol-3-yl)acetyl]-D-lysyl]aminophenyl]methane hydrochloride] | 25 | 83.6
4 | CCc1[nH]c2ccccc2c1CC(=O)N[C@H](CCCCN)C(=O)Nc1ccc(C(c2ccc(NC(=O)[C@@H](CCCCN)NC(=O)Cc3c(CC)[nH]c4ccccc34)cc2)c2ccc(NC(=O)[C@@H](CCCCN)NC(=O)Cc3c(CC)[nH]c4ccccc34)cc2)cc1.Cl [Example 148, tris[4-[N-α-[2-(2-ethyl-1H-indol-3-yl)acetyl]-D-lysyl]aminophenyl]methane hydrochloride] | 25 | 73.6
5 | COc1ccc2[nH]c(C)c(CC(=O)N[C@@H](CCN)C(=O)Nc3ccc(C(c4ccc(NC(=O)[C@H](CCN)NC(=O)Cc5c(C)[nH]c6ccc(OC)cc56)cc4)c4ccc(NC(=O)[C@H](CCN)NC(=O)Cc5c(C)[nH]c6ccc(OC)cc56)cc4)cc3)c2c1.O=C(O)C(F)(F)F [Example 133, tris[4-[β-aminomethyl-N-[2-(5-methoxy-2-methyl-1H-indol-3-yl)acetyl]-L-alanyl]aminophenyl]methane trifluoroacetate] | 50 | 89.6
6 | NCCCC[C@@H](NC(=O)c1cccc(O)c1)C(=O)Nc1ccc(C(c2ccc(NC(=O)[C@@H](CCCCN)NC(=O)c3cccc(O)c3)cc2)c2ccc(NC(=O)[C@@H](CCCCN)NC(=O)c3cccc(O)c3)cc2)cc1.O=C(O)C(F)(F)F [Example 186, tris[4-[N-α-(3-hydroxybenzoyl)-D-lysyl]aminophenyl]methane trifluoroacetate] | 25 | 35.8
7 | NCCCC[C@@H](NC(=O)Cc1c[nH]c2ccccc12)C(=O)Nc1ccc(N(c2ccc(NC(=O)[C@@H](CCCCN)NC(=O)Cc3c[nH]c4ccccc34)cc2)c2ccc(NC(=O)[C@@H](CCCCN)NC(=O)Cc3c[nH]c4ccccc34)cc2)cc1.O=C(O)C(F)(F)F [Example 201, tris[4-[N-α-[2-(1H-indol-3-yl)acetyl]-D-lysyl]aminophenyl]amine trifluoroacetate] | 25 | 110
8 | NCCC[C@H](NC(=O)Cc1c[nH]c2ccccc12)C(=O)Nc1ccc(C(c2ccc(NC(=O)[C@H](CCCN)NC(=O)Cc3c[nH]c4ccccc34)cc2)c2ccc(NC(=O)[C@H](CCCN)NC(=O)Cc3c[nH]c4ccccc34)cc2)cc1.O=C(O)C(F)(F)F [Example 134, tris[4-[N-α-[2-(1H-indol-3-yl)acetyl]-L-ornithyl]aminophenyl]methane trifluoroacetate] | 50 | 67.2
9 | Cl.NCCCC[C@H](NC(=O)Cc1ccsc1)C(=O)Nc1ccc(C(c2ccc(NC(=O)[C@H](CCCCN)NC(=O)Cc3ccsc3)cc2)c2ccc(NC(=O)[C@H](CCCCN)NC(=O)Cc3ccsc3)cc2)cc1 [Example 13, tris[4-[N-α-[2-(thiophen-3-yl)acetyl]-L-lysyl]aminophenyl]methane hydrochloride] | 25 | 25.7
10 | Cc1[nH]c2ccccc2c1CC(=O)N[C@@H](CCCCN)C(=O)Nc1ccc(C(c2ccc(NC(=O)[C@H](CCCCN)NC(=O)Cc3c(C)[nH]c4ccccc34)cc2)c2ccc(NC(=O)[C@H](CCCCN)NC(=O)Cc3c(C)[nH]c4ccccc34)cc2)cc1.Cl [Example 7, tris[4-[N-α-[2-(2-methyl-1H-indol-3-yl)acetyl]-L-lysyl]aminophenyl]methane hydrochloride] | 21 | 24.7
11 | Cl.NCCCC[C@H](NC(=O)Cc1c[nH]c2ccccc12)C(=O)Nc1ccc(C(c2ccc(NC(=O)[C@H](CCCCN)NC(=O)Cc3c[nH]c4ccccc34)cc2)c2ccc(NC(=O)[C@H](CCCCN)NC(=O)Cc3c[nH]c4ccccc34)cc2)cc1 [Example 1, tris[4-[N-α-[2-(1H-indol-3-yl)acetyl]-L-lysyl]aminophenyl]methane hydrochloride] | 25 | 37.6
12 | Cl.NCCCC[C@@H](NC(=O)c1cccc2[nH]ccc12)C(=O)Nc1ccc(C(c2ccc(NC(=O)[C@@H](CCCCN)NC(=O)c3cccc4[nH]ccc34)cc2)c2ccc(NC(=O)[C@@H](CCCCN)NC(=O)c3cccc4[nH]ccc34)cc2)cc1 [Example 152, tris[4-[N-α-(1H-indol-4-yl)carbonyl-D-lysyl]aminophenyl]methane hydrochloride] | 25 | 62.0
13 | Cl.NCCCC[C@@H](NC(=O)c1cc2cc(O)ccc2[nH]1)C(=O)Nc1ccc(C(c2ccc(NC(=O)[C@@H](CCCCN)NC(=O)c3cc4cc(O)ccc4[nH]3)cc2)c2ccc(NC(=O)[C@@H](CCCCN)NC(=O)c3cc4cc(O)ccc4[nH]3)cc2)cc1 [Example 151, tris[4-[N-α-(5-hydroxy-1H-indol-2-yl)carbonyl-D-lysyl]aminophenyl]methane hydrochloride] | 50 | 90.8
14 | CN(C)CCCC[C@H](NC(=O)Cc1c[nH]c2ccccc12)C(=O)Nc1ccc(C(c2ccc(NC(=O)[C@H](CCCCN(C)C)NC(=O)Cc3c[nH]c4ccccc34)cc2)c2ccc(NC(=O)[C@H](CCCCN(C)C)NC(=O)Cc3c[nH]c4ccccc34)cc2)cc1 [Example 29, tris[4-[N-α-[2-(1H-indol-3-yl)acetyl]-N-εdimethyl-L-lysyl]aminophenyl]methane] | 25 | 98.5
15 | Cc1[nH]c2ccccc2c1CC(=O)N[C@H](CCCCN)C(=O)Nc1ccc(C(c2ccc(NC(=O)[C@@H](CCCCN)NC(=O)Cc3c(C)[nH]c4ccccc34)cc2)c2ccc(NC(=O)[C@@H](CCCCN)NC(=O)Cc3c(C)[nH]c4ccccc34)cc2)cc1 [Example 21, tris[4-[N-α-[2-(2-methyl-1H-indol-3-yl)acetyl]-D-lysyl]aminophenyl]methane] | 25 | 60.1
16 | Cl.NCCCC[C@@H](NC(=O)c1cnccn1)C(=O)Nc1ccc(C(c2ccc(NC(=O)[C@@H](CCCCN)NC(=O)c3cnccn3)cc2)c2ccc(NC(=O)[C@@H](CCCCN)NC(=O)c3cnccn3)cc2)cc1 [Example 157, tris[4-[N-α-(pyrazin-2-yl)carbonyl-D-lysyl]aminophenyl]methane hydrochloride] | 50 | 36.1
17 | NCCCC[C@H](NC(=O)Cc1ccccc1)C(=O)Nc1ccc(C(c2ccc(NC(=O)[C@H](CCCCN)NC(=O)Cc3ccccc3)cc2)c2ccc(NC(=O)[C@H](CCCCN)NC(=O)Cc3ccccc3)cc2)cc1.O=C(O)C(F)(F)F [Example 199, tris[4-[N-α-(2-phenylacetyl)-L-lysyl]aminophenyl]methane trifluoroacetate] | 12.5 | 47.0
18 | Cl.N=C(N)NCCC[C@@H](NC(=O)Cc1ccsc1)C(=O)Nc1ccc(C(c2ccc(NC(=O)[C@@H](CCCNC(=N)N)NC(=O)Cc3ccsc3)cc2)c2ccc(NC(=O)[C@@H](CCCNC(=N)N)NC(=O)Cc3ccsc3)cc2)cc1 (stereo partly drawn) [Example 40, tris[4-[N-α-[2-(thiophen-3-yl)acetyl]-D-arginyl]aminophenyl]methane hydrochloride] | 12.5 | 59.0
19 | Cc1[nH]c2ccccc2c1CC(=O)N[C@H](CCCNC(=N)N)C(=O)Nc1ccc(C(c2ccc(NC(=O)[C@@H](CCCNC(=N)N)NC(=O)Cc3c(C)[nH]c4ccccc34)cc2)c2ccc(NC(=O)[C@@H](CCCNC(=N)N)NC(=O)Cc3c(C)[nH]c4ccccc34)cc2)cc1.Cl (stereo partly drawn) [Example 39, tris[4-[N-α-[2-(2-methyl-1H-indol-3-yl)acetyl]-D-arginyl]aminophenyl]methane hydrochloride] | 12.5 | 80.4
